Experimental data from patent US20250325531A1, “TREATMENT OF SYSTOLIC DYSFUNCTION” (MyoKardia, Inc., priority 2024, published 2025).

Tested on: patients with stable HFrEF
Assay: Safety and tolerability (TEAEs, serum troponin, ECG, Holter) in MAD cohorts, patients with stable HFrEF
Type: in vivo, human
Description: During the study, multiple evaluations were performed that included: serial TTE assessments (11-14 TTEs per patient on Days 1, 2, 3, 4, 7, 9, 10 and 11); PK sampling (PK sample collected concomitantly with every post-randomization echocardiogram); ECGs (on Days 2, 3, 4, 7, 9, 10, 11 and 16); troponin (collected concomitantly with every post-randomization ECG); and safety laboratory assessments. Confined patients underwent continuous telemetry. Holter monitoring was performed in all patients at baseline (Days 1-2) and at the end of double-blind treatment (Days 7-9). Vital signs were collected daily.
Safety and efficacy assessments were conducted by measuring patients' vital signs and laboratory parameters; performing TTE to measure, e.g., systolic ejection time; performing electrocardiograms (e.g., 12-lead ECG), real-time ECG telemetry (e.g., at least 3-lead), and Holter ECG; and measuring levels of troponin (e.g., troponin I and/or troponin T) and 4β-hydroxycholesterol.
Abnormal and/or rising troponin values (as per investigator's judgment and taking into account potential baseline troponin elevation frequently observed in heart failure) led to the patient being clinically evaluated for possible myocardial ischemia. […] The entire clinical context (e.g., signs, symptoms, new ECG changes, new troponin, and CK-MB abnormalities) was evaluated and correlated with any other relevant clinical findings, patient's medical history, and laboratory data to determine the clinical significance of the findings. Troponin results performed on Day 2 of Part 1 (SAD) and Day 10 of Part 2 (MAD) at a local lab were reviewed prior to the patient being discharged the next day.

[1] = Cohort A + C 75 mg BID (n = 15)

Compound: Cn1cc(S(=O)(=O)[C@@](C)(F)C2CCN(C(=O)Nc3ccon3)CC2)c(C(F)F)n1 [Compound I, (R)-4-(1-((3-(difluoromethyl)-1-methyl-1H-pyrazol-4-yl)sulfonyl)-1-fluoroethyl)-N-(isoxazol-3-yl) piperidine-1-carboxamide]
- Number of patients with any AE leading to death [1]: 0
- Number of patients with any TEAE [1]: 6
- Number of patients with any TEAE leading to permanent treatment discontinuation [1]: 0
- Number of patients with any serious TEAE [1]: 1
- TEAE Abdominal discomfort, n patients [1]: 0
- TEAE Alanine aminotransferase increased, n patients [1]: 1
- TEAE Anemia, n patients [1]: 1
- TEAE Application site erosion, n patients [1]: 0
- TEAE Arthralgia, n patients [1]: 0
- TEAE Arthropod bite, n patients [1]: 0
- TEAE Back pain, n patients [1]: 0
- TEAE Blood creatine phosphokinase increased, n patients [1]: 0
- TEAE Blood creatinine increased, n patients [1]: 0
- TEAE Cough, n patients [1]: 1
- TEAE Dermatitis contact, n patients [1]: 0
- TEAE Dry eye, n patients [1]: 0
- TEAE Fatigue, n patients [1]: 2
- TEAE Fluid overload, n patients [1]: 0
- TEAE Gingival pain, n patients [1]: 0
- TEAE Hyperkalemia, n patients [1]: 0
- TEAE Infusion site erythema, n patients [1]: 0
- TEAE Nasopharyngitis, n patients [1]: 0
- TEAE Rash, n patients [1]: 0
- TEAE Renal failure, n patients [1]: 0
- TEAE Renal impairment, n patients [1]: 0
- TEAE Testicular pain, n patients [1]: 0
- TEAE Troponin increased, n patients [1]: 1
- TEAE Ventricular tachycardia, n patients [1]: 0
- Number of patients with any AE leading to death (Cohort B 50 mg BID (n = 9)): 0
- Number of patients with any TEAE (Cohort B 50 mg BID (n = 9)): 7
- Number of patients with any TEAE leading to permanent treatment discontinuation (Cohort B 50 mg BID (n = 9)): 0
- Number of patients with any serious TEAE (Cohort B 50 mg BID (n = 9)): 0
- TEAE Abdominal discomfort, n patients (Cohort B 50 mg BID (n = 9)): 1
- TEAE Alanine aminotransferase increased, n patients (Cohort B 50 mg BID (n = 9)): 1
- TEAE Anemia, n patients (Cohort B 50 mg BID (n = 9)): 0
- TEAE Application site erosion, n patients (Cohort B 50 mg BID (n = 9)): 1
- TEAE Arthralgia, n patients (Cohort B 50 mg BID (n = 9)): 0
- TEAE Arthropod bite, n patients (Cohort B 50 mg BID (n = 9)): 0
- TEAE Back pain, n patients (Cohort B 50 mg BID (n = 9)): 0
- TEAE Blood creatine phosphokinase increased, n patients (Cohort B 50 mg BID (n = 9)): 1
- TEAE Blood creatinine increased, n patients (Cohort B 50 mg BID (n = 9)): 0
- TEAE Cough, n patients (Cohort B 50 mg BID (n = 9)): 0
- TEAE Dermatitis contact, n patients (Cohort B 50 mg BID (n = 9)): 2
- TEAE Dry eye, n patients (Cohort B 50 mg BID (n = 9)): 0
- TEAE Fatigue, n patients (Cohort B 50 mg BID (n = 9)): 0
- TEAE Fluid overload, n patients (Cohort B 50 mg BID (n = 9)): 1
- TEAE Gingival pain, n patients (Cohort B 50 mg BID (n = 9)): 0
- TEAE Hyperkalemia, n patients (Cohort B 50 mg BID (n = 9)): 1
- TEAE Infusion site erythema, n patients (Cohort B 50 mg BID (n = 9)): 1
- TEAE Nasopharyngitis, n patients (Cohort B 50 mg BID (n = 9)): 0
- TEAE Rash, n patients (Cohort B 50 mg BID (n = 9)): 1
- TEAE Renal failure, n patients (Cohort B 50 mg BID (n = 9)): 0
- TEAE Renal impairment, n patients (Cohort B 50 mg BID (n = 9)): 0
- TEAE Testicular pain, n patients (Cohort B 50 mg BID (n = 9)): 0
- TEAE Troponin increased, n patients (Cohort B 50 mg BID (n = 9)): 0
- TEAE Ventricular tachycardia, n patients (Cohort B 50 mg BID (n = 9)): 1
- Number of patients with any AE leading to death (Cohort D 100 mg BID (n = 6)): 0
- Number of patients with any TEAE (Cohort D 100 mg BID (n = 6)): 4
- Number of patients with any TEAE leading to permanent treatment discontinuation (Cohort D 100 mg BID (n = 6)): 0
- Number of patients with any serious TEAE (Cohort D 100 mg BID (n = 6)): 0
- TEAE Abdominal discomfort, n patients (Cohort D 100 mg BID (n = 6)): 0
- TEAE Alanine aminotransferase increased, n patients (Cohort D 100 mg BID (n = 6)): 0
- TEAE Anemia, n patients (Cohort D 100 mg BID (n = 6)): 0
- TEAE Application site erosion, n patients (Cohort D 100 mg BID (n = 6)): 0
- TEAE Arthralgia, n patients (Cohort D 100 mg BID (n = 6)): 0
- TEAE Arthropod bite, n patients (Cohort D 100 mg BID (n = 6)): 1
- TEAE Back pain, n patients (Cohort D 100 mg BID (n = 6)): 0
- TEAE Blood creatine phosphokinase increased, n patients (Cohort D 100 mg BID (n = 6)): 0
- TEAE Blood creatinine increased, n patients (Cohort D 100 mg BID (n = 6)): 1
- TEAE Cough, n patients (Cohort D 100 mg BID (n = 6)): 0
- TEAE Dermatitis contact, n patients (Cohort D 100 mg BID (n = 6)): 0
- TEAE Dry eye, n patients (Cohort D 100 mg BID (n = 6)): 0
- TEAE Fatigue, n patients (Cohort D 100 mg BID (n = 6)): 0
- TEAE Fluid overload, n patients (Cohort D 100 mg BID (n = 6)): 0
- TEAE Gingival pain, n patients (Cohort D 100 mg BID (n = 6)): 1
- TEAE Hyperkalemia, n patients (Cohort D 100 mg BID (n = 6)): 0
- TEAE Infusion site erythema, n patients (Cohort D 100 mg BID (n = 6)): 0
- TEAE Nasopharyngitis, n patients (Cohort D 100 mg BID (n = 6)): 0
- TEAE Rash, n patients (Cohort D 100 mg BID (n = 6)): 0
- TEAE Renal failure, n patients (Cohort D 100 mg BID (n = 6)): 0
- TEAE Renal impairment, n patients (Cohort D 100 mg BID (n = 6)): 0
- TEAE Testicular pain, n patients (Cohort D 100 mg BID (n = 6)): 0
- TEAE Troponin increased, n patients (Cohort D 100 mg BID (n = 6)): 1
- TEAE Ventricular tachycardia, n patients (Cohort D 100 mg BID (n = 6)): 1
- QTc (MAD cohorts): No increase in QTc
- patients with TEAEs (MAD cohorts, Compound I patients): 17 (57%) n (%)
- patients with transient and asymptomatic increase in troponin I or hs-troponin T (MAD cohorts, all doses): 7 (23%) n (%)
- Number of patients with any AE leading to death (Total Compound I (n = 30)): 0
- Number of patients with any TEAE (Total Compound I (n = 30)): 17
- Number of patients with any TEAE leading to permanent treatment discontinuation (Total Compound I (n = 30)): 0
- Number of patients with any serious TEAE (Total Compound I (n = 30)): 1
- TEAE Abdominal discomfort, n patients (Total Compound I (n = 30)): 1
- TEAE Alanine aminotransferase increased, n patients (Total Compound I (n = 30)): 2
- TEAE Anemia, n patients (Total Compound I (n = 30)): 1
- TEAE Application site erosion, n patients (Total Compound I (n = 30)): 1
- TEAE Arthralgia, n patients (Total Compound I (n = 30)): 0
- TEAE Arthropod bite, n patients (Total Compound I (n = 30)): 1
- TEAE Back pain, n patients (Total Compound I (n = 30)): 0
- TEAE Blood creatine phosphokinase increased, n patients (Total Compound I (n = 30)): 1
- TEAE Blood creatinine increased, n patients (Total Compound I (n = 30)): 1
- TEAE Cough, n patients (Total Compound I (n = 30)): 1
- TEAE Dermatitis contact, n patients (Total Compound I (n = 30)): 2
- TEAE Dry eye, n patients (Total Compound I (n = 30)): 0
- TEAE Fatigue, n patients (Total Compound I (n = 30)): 2
- TEAE Fluid overload, n patients (Total Compound I (n = 30)): 1
- TEAE Gingival pain, n patients (Total Compound I (n = 30)): 1
- TEAE Hyperkalemia, n patients (Total Compound I (n = 30)): 1
- TEAE Infusion site erythema, n patients (Total Compound I (n = 30)): 1
- TEAE Nasopharyngitis, n patients (Total Compound I (n = 30)): 0
- TEAE Rash, n patients (Total Compound I (n = 30)): 1
- TEAE Renal failure, n patients (Total Compound I (n = 30)): 0
- TEAE Renal impairment, n patients (Total Compound I (n = 30)): 0
- TEAE Testicular pain, n patients (Total Compound I (n = 30)): 0
- TEAE Troponin increased, n patients (Total Compound I (n = 30)): 2
- TEAE Ventricular tachycardia, n patients (Total Compound I (n = 30)): 2
- ventricular arrhythmias (Holter monitoring) (compared with placebo): no increase in ventricular arrhythmias
- systolic blood pressure (higher concentration group): decrease
- serious AE, one patient (not considered related to study treatment): hyperkalemia
